Measured values reported in patent publication US5288709A, “Erythromycin derivatives” (priority 1991, dated 1994).
≈ marks a conversion by molar mass, not a printed value. Where two headings read alike, the source gives them in different places.

How the values were obtained:
[1] = test system: Streptococcus pyogenes C-203; assay: In-vivo acute mouse protection assay; set-up: species or system Streptococcus pyogenes; female Swiss albino mice; conditions: dosed 1 and 5 h post-infection, observed 7 days
Description: (§1) An acute mouse protection test was conducted on ten mice with each of three concentrations of selected compounds of the invention. Each concentration was a four-fold dilution of the previous concentration. The initial concentration will vary with the microorganism with which the mouse is challenged.
(§2) The acute mouse protection test was conducted on female, Swiss albino mice, 18-20 grams in weight. […] To check the potency of the inoculum, a titration of the indicated test organism was carried out in control animals. The titration determines the LD50 for a particular microorganism. The treatment groups of animals were dosed orally, by gavage, or subcutaneously with the test compounds at 1 and 5 hours post-infection and observed for 7 days. The ED50 were calculated using the mortality data collected.

[2] = test system: Streptococcus pneumoniae (ATCC 6303); assay: In-vivo acute mouse protection assay; set-up: species or system Streptococcus pneumoniae; female Swiss albino mice; conditions: dosed 1 and 5 h post-infection, observed 7 days
Description: as §1, §2

[3] = test system: Haemophilus influenzae (ATCC 43095); assay: In-vivo acute mouse protection assay; set-up: species or system Haemophilus influenzae; female Swiss albino mice; conditions: dosed 1 and 5 h post-infection, observed 7 days
Description: as §1, §2

[4] = Pharmacokinetic evaluation in dogs after a 10 mg/kg dose; conditions: dog, plasma; for half-life: t1/2 (biological half life); for bioavailability: % ABS (percent absorbance), from AUC (absolute bioavailability); for Cmax: Cmax (maximum concentration in blood); for Tmax: Tmax (time to achieve maximum concentration in blood)
Description: (§4) Selected compounds of the present invention were formulated as solutions in dilute lactobionic acid at a concentration of 10 or 20 mg/ml. Groups of two or three dogs were given a 10 mg macrolide/kg intravenous bolus or oral dose (by gavage). Plasma samples, obtained at selected time points from 15 minutes to 32 hours after dosing, were assayed using reverse phase HPLC with electrochemical detection (parent drug) and microbiological assay (total microbiological activity). Plasma concentration time curves were subjected to multi exponential curve fitting to determine terminal elimination half life values. Area under the curve (AUC) values, calculated by the trapezoidal method, were used to calculate absolute bioavailability.

[5] = test system: Haemophilus influenzae ATCC 43095; assay: Treatment of induced otitis media in gerbils; format: in vivo, Haemophilus influenzae; female mongolian gerbils; conditions: read-out: ED50 (dose required to reduce CFUs by 90%)
Description: The effectiveness of one of the compounds of the present invention in treating otitis media was examined as desribed below. A five hour log phase culture of Haemophilus influenzae ATCC 43095 was prepared in brain heart infusion broth (BHIB) supplemented with 4% Fildes enrichment and 0.001% nicotinamide adenine dinucleotide (NAD; commerically available from Sigma Chemical Co., St. Louis, Missouri).
Immediately prior to treatment with the test compounds, middle ear aspirates from five gerbils were obtained as described below and cultured to determine the level of infection at the onset of therapy. The test compounds produced by Example 19, (9S,11S)-11-Amino-9-deoxo-11,12-deoxy-9,12-epoxyerythromycin A, was administered orally by gavage in a 0.5 mL volume beginning 17 hours post infection and continuing three times daily for two days to groups of five gerbils. As a standard, a second group of gerbils was similarly treated using erythromycin. Eighteen hours after the final treatment, the gerbils were euthanized, 0.02 mL of BHIB injected into the middle ear bulla through the tympanic membrane, and middle ear aspirates collected and cultured.
The aspirates were diluted in BHIB and plated in duplicate onto chocolate agar. Colonies were counted after overnight incubation, and bacterial counts were expressed as colony forming units (CFUs) per middle ear. […]

[6] = in vivo; conditions: dog, iv, 10 mg/kg, t1/2 (biological half life), microbiological assay
Description: as §4

[7] = test system: Staphylococcus aureus NCTC 10649; assay: In-vitro antimicrobial activity primary screen (agar dilution MIC); format: cell-based; conditions: BHI agar, 20-24 h
Method in brief: (§3)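 Agar dilution in BHI agar, 12 successive aqueous dilutions; Steers replicator inoculum 1:100, 1:10 for slow-growing Streptococcus; 35-37° C, 20-24 h. Drug-free plates at start and end; same-class reference drug plate. MIC = lowest conc with no growth/slight haze/sparse colonies.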

[8] = test system: Staphylococcus aureus 642A; assay: as above; format: cell-based; conditions: BHI agar, 20-24 h
Method in brief: as §3

[9] = ATCC6303, 168 h, oral, read-out: ED50
[10] = ATCC6303, sc, 168 h, subcutaneous, read-out: ED50
[11] = ATCC43095, 168 h, oral, read-out: ED50
[12] = iv, IV 10 mg/kg, HPLC (parent drug)
[13] = iv, IV 10 mg/kg, microbiological assay
[14] = po, oral 10 mg/kg, HPLC (parent drug)
[15] = po, oral 10 mg/kg, microbiological assay

SMILES: CC[C@H]1OC(=O)[C@H](C)[C@@H](O[C@H]2C[C@@](C)(OC)[C@@H](O)[C@H](C)O2)[C@H](C)[C@@H](O[C@@H]2O[C@H](C)C[C@H](N(C)C)[C@H]2O)[C@](C)(O)C[C@@H](C)[C@@H]2O[C@@]1(C)[C@@H](O)[C@H]2C [Example 4, (9S,11S)-9-Deoxo-12-deoxy-9,12-epoxyerythromycin A]
- ED50 ([1]; C203, 168 h, oral): 20 mg/kg
- ED50 ([1]; C203, sc, 168 h, subcutaneous): 3.3 mg/kg
- ED50 [2, 9]: 20.4 mg/kg
- ED50 [2, 10]: 1.3 mg/kg
- ED50 [3, 11]: 238 mg/kg
- ED50 ([3]; ATCC43095, sc, 168 h, subcutaneous, read-out: ED50): 11.3 mg/kg
- half-life [4, 12]: 2.9 h
- half-life [4, 13]: 2.9 h
- bioavailability [4, 14]: 69%
- bioavailability [4, 15]: 75%
- Cmax [4, 14]: 3900 ng/mL
- Cmax [4, 15]: 4300 ng/mL
- Tmax [4, 14]: 0.25 h
- Tmax [4, 15]: 0.4 h
- half-life [4, 14]: 2.9 h
- half-life [4, 15]: 2.7 h

SMILES: CC[C@H]1OC(=O)[C@H](C)[C@@H](O[C@H]2C[C@@](C)(OC)[C@@H](O)[C@H](C)O2)[C@H](C)[C@@H](O[C@@H]2O[C@H](C)C[C@H](N(C)C)[C@H]2O)[C@](C)(O)C[C@@H](C)[C@@H]2O[C@@]1(C)[C@@H](N)[C@H]2C [Example 19, (9S,11S)-11-Amino-9-deoxo-11,12-deoxy-9,12-epoxyerythromycin A]
- ED50 ([5]; ATCC43095, gerbil, oral gavage three times daily for two days from 17 h post infection): 46.5 mg/kg
- ED50 ([1]; C203, 168 h, oral): 28.9 mg/kg
- ED50 ([1]; C203, sc, 168 h, subcutaneous): 2.5 mg/kg
- ED50 [2, 9]: < 9.4 mg/kg
- ED50 [2, 10]: 1.1 mg/kg
- ED50 [3, 11]: 101 mg/kg
- half-life [4, 12]: 7.5 h
- half-life [4, 13]: 6.6 h
- bioavailability [4, 14]: 59%
- bioavailability [4, 15]: 67%
- Cmax [4, 14]: 3200 ng/mL
- Cmax [4, 15]: 3300 ng/mL
- Tmax [4, 14]: 0.25 h
- Tmax [4, 15]: 0.4 h
- half-life [4, 14]: 8.1 h
- half-life [4, 15]: 5.8 h

SMILES: CC[C@H]1OC(=O)[C@H](C)[C@@H](O[C@H]2C[C@@](C)(OC)[C@@H](O)[C@H](C)O2)[C@H](C)[C@@H](O[C@@H]2O[C@H](C)C[C@H](N(C)C)[C@H]2O)[C@](C)(O)C[C@@H](C)[C@@H]2O[C@@]1(C)C(=O)[C@H]2C [Example 5, (9S)-9-Deoxo-11,12-dideoxy-9,12-epoxy-11-oxoerythromycin A]
- ED50 ([1]; C203, 168 h, oral): 3.9 mg/kg
- ED50 ([1]; C203, sc, 168 h, subcutaneous): 1.7 mg/kg
- ED50 [2, 9]: 23.7 mg/kg
- ED50 [2, 10]: < 0.4 mg/kg
- half-life [4, 12]: 12.2 h
- half-life [4, 13]: 14.7 h
- bioavailability [4, 14]: 81%
- bioavailability [4, 15]: 76%
- Cmax [4, 14]: 2500 ng/mL
- Cmax [4, 15]: 2500 ng/mL
- Tmax [4, 14]: 4 h
- half-life [4, 14]: 10.2 h
- half-life [4, 15]: 10.5 h

SMILES: CC[C@H]1OC(=O)[C@H](C)[C@@H](O[C@H]2C[C@@](C)(OC)[C@@H](O)[C@H](C)O2)[C@H](C)[C@@H](O[C@@H]2O[C@H](C)C[C@H](N(C)C)[C@H]2O)[C@](C)(O)C[C@@H](C)C(=O)[C@H](C)[C@@H](O)[C@]1(C)O [Std, Erythromycin A, reference compound]
- ED50 ([5]; ATCC43095, po): > 300 mg/kg
- ED50 ([3]; ATCC43095, sc, 168 h, subcutaneous): 29.7 mg/kg
- bioavailability [4, 15]: 72%
- Cmax [4, 15]: 2500 ng/mL
- Tmax [4, 15]: 0.3 h
- half-life [6]: 1.4 h
- MIC [7]: 0.1 microgram/mL
- MIC ([7]; Staphylococcus aureus, NCTC10649, 24 h): 0.2 µg/mL (≈ 0.273 µM)
- MIC [8]: 0.1 microgram/mL
- MIC ([8]; Staphylococcus aureus, 642A, 24 h): 0.2 µg/mL (≈ 0.273 µM)

SMILES: CC[C@H]1OC(=O)[C@H](C)[C@@H](O[C@H]2C[C@@](C)(OC)[C@H](N)[C@H](C)O2)[C@H](C)[C@@H](O[C@@H]2O[C@H](C)C[C@H](N(C)C)[C@H]2O)[C@](C)(O)C[C@@H](C)[C@@H]2O[C@@]1(C)[C@@H](O)[C@H]2C [Example 13, (4"R,9S,11S) 4"-Amino-9-deoxo-4",12-dideoxy-9,12-epoxyerythromycin A]
- ED50 ([1]; C203, 168 h, oral): 51.5 mg/kg
- ED50 ([1]; C203, sc, 168 h, subcutaneous): 9.3 mg/kg
- ED50 [2, 9]: 84.8 mg/kg
- ED50 ([2]; ATCC6303, sc, 168 h, subcutaneous): 4 mg/kg
- half-life [4, 12]: 9.9 h
- half-life [4, 13]: 18.3 h
- bioavailability [4, 14]: 68%
- bioavailability [4, 15]: 58%
- Cmax [4, 14]: 1600 ng/mL
- Cmax [4, 15]: 1700 ng/mL
- Tmax [4, 14]: 0.4 h
- Tmax [4, 15]: 0.4 h
- half-life [4, 14]: 9.6 h
- half-life [4, 15]: 9.1 h
